Assays:
Triticum aestivum [1] = assay: Effect on photosynthetic activity in Triticum aestivum (wheat) shoots assessed as dark respiration rate measured by CO2 production compound administered at rate of 14 mf/flat measured 48 hr post treatment (reference value: -1.43 umol/m2/s); assay type: functional
Shoot [2] = assay: Drug level in Triticum aestivum (wheat) shoots compound administered at rate of 14 mf/flat measured 24 hr post treatment by HPLC; assay type: ADME
Lolium multiflorum [3] = assay: Effect on photosynthetic activity in Lolium multiflorum (Italian ryegrass) shoots assessed as leaf net photosynthesis rate measured by CO2 production compound administered at rate of 14 mf/flat measured 72 hr post treatment (reference value: 4.45 umol/m2/s); assay type: functional
Lolium multiflorum [4] = assay: Effect on antioxidant enzyme system in Lolium multiflorum (Italian ryegrass) shoots assessed as dehydroascorbate reductase activity per mg protein compound administered at rate of 14 mf/flat measured 24 hr post treatment (reference value: 3.9 nmol/s per mg protein); assay type: functional
Triticum aestivum [5] = assay: Effect on antioxidant enzyme system in Triticum aestivum (wheat) shoots assessed as dehydroascorbate reductase activity per mg protein compound administered at rate of 14 mf/flat measured 24 hr post treatment (reference value: 4.6 nmol/s per mg protein); assay type: functional
Triticum aestivum [6] = assay: Effect on photosynthetic activity in Triticum aestivum (wheat) shoots assessed as dark respiration rate measured by CO2 production compound administered at rate of 14 mf/flat measured 72 hr post treatment (reference value: -1.07 umol/m2/s); assay type: functional
Lolium multiflorum [7] = assay: Increase in antioxidant enzyme system in Lolium multiflorum (Italian ryegrass) shoots assessed as increase in dehydroascorbate reductase activity compound administered at rate of 14 mf/flat measured 48 hr post treatment; assay type: functional
Triticum aestivum [8] = assay: Effect on antioxidant enzyme system in Triticum aestivum (wheat) shoots assessed as glutathione reductase activity per mg protein compound administered at rate of 14 mf/flat measured 48 hr post treatment (reference value: 1.1 nmol/s per mg protein); assay type: functional
Triticum aestivum [9] = assay: Increase in antioxidant enzyme system in Triticum aestivum (wheat) shoots assessed as increase in dehydroascorbate reductase activity compound administered at rate of 14 mf/flat measured 72 hr post treatment; assay type: functional
Lolium multiflorum [10] = assay: Effect on antioxidant enzyme system in Lolium multiflorum (Italian ryegrass) shoots assessed as glutathione reductase activity per mg protein compound administered at rate of 14 mf/flat measured 72 hr post treatment (reference value: 1.2 nmol/s per mg protein); assay type: functional
Lolium multiflorum [11] = assay: Increase in antioxidant enzyme system in Lolium multiflorum (Italian ryegrass) shoots assessed as increase in ascorbate peroxidase activity compound administered at rate of 14 mf/flat measured 72 hr post treatment; assay type: functional
Triticum aestivum [12] = assay: Effect on antioxidant enzyme system in Triticum aestivum (wheat) shoots assessed as catalase activity per mg protein compound administered at rate of 14 mf/flat measured 48 hr post treatment (reference value: 0.12 nmol/s per mg protein); assay type: functional
Shoot [13] = assay: Drug level in Triticum aestivum (wheat) shoots compound administered at rate of 14 mf/flat measured 144 hr post treatment by HPLC; assay type: ADME
Triticum aestivum [14] = assay: Reduction in glutathione S-transferase activity in Triticum aestivum (wheat) shoots compound administered at rate of 14 mf/flat measured 48 hr post treatment; assay type: functional; set-up: scale not given: the % may be the effect or the level left
Lolium multiflorum [15] = assay: Increase in MDA content in Lolium multiflorum (Italian ryegrass) shoots compound administered at rate of 14 mf/flat measured 24 hr post treatment; assay type: functional

Compound | Activity (Triticum aestivum [1]) [micromol/m2/s] | Drug uptake (Shoot [2]) [ppm] | Activity (Lolium multiflorum [3]) [micromol/m2/s] | Activity (Lolium multiflorum [4]) [nmol/s/mg protein] | Activity (Triticum aestivum [5]) [nmol/s/mg protein] | Activity (Triticum aestivum [6]) [micromol/m2/s] | Activity (Lolium multiflorum [7]) [%] | Activity (Triticum aestivum [8]) [nmol/s/mg protein] | Activity (Triticum aestivum [9]) [%] | Activity (Lolium multiflorum [10]) [nmol/s/mg protein] | Activity (Lolium multiflorum [11]) [%] | Activity (Triticum aestivum [12]) [nmol/s] | Drug uptake (Shoot [13]) [ppm] | Activity (Triticum aestivum [14]) [%] | Activity (Lolium multiflorum [15]) [%]
O=[N+]([O-])c1ccc(Oc2ccc(C(F)(F)F)cc2[N+](=O)[O-])cc1 [FLUORODIFEN] | -0.77 | 1.64 | 4.05 | 4.2 | 5 | -0.94 | 19 | 1.2 | 45 | 1.1 | 21 | 0.12 |  |  | 
CCNc1nc(Cl)nc(NC(C)C)n1 [ATRAZINE] |  | 1.38 | -1.35 | 4.5 | 5.5 |  |  | 1.1 | 21 | 1.2 |  | 0.11 | 0.35 | 26 | 25

— ChEMBL document CHEMBL3045349, “A comparative study on the interference of two herbicides in wheat and italian ryegrass and on their antioxidant activities and detoxification rates” (J Agric Food Chem, 2011)
